This is an account of results in PubChem BioAssay (NCI).

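Test compounds were applied to cells in 96-well plates for 48 hours at 5 doses. GI50: concentration for 50% inhibition of growth. TGI marks complete inhibition of growth.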 Where only a bound is given, the exact number is not on record here.

What all share (assay): NCI tumour cell line growth inhibition, 48 h
Assay [1] relates to P388/ADR leukemia.
The test system of assay [2] is XF 498 CNS.
Assay [3] concerns SN12K1 renal.
Assay [4] has as its system P388 leukemia.
Assay [5] deals with RXF-631 renal.
For assay [6], the system named is MDA-MB-231 breast.
Assay [7] concerns BT-549 breast.
Assay [8] has as its system MDA-N.

`Cc1nc2ccccc2c(=O)n1CC(=O)O`: the TGI in assay [1], in assay [2], in assay [3] and in assay [4] was greater than 100 µM in each case.
On to `CC[C@@H](C(=O)[C@@H](C)[C@@H](O)[C@H](C)CCc1ccc(C)c(O)c1C(=O)O)[C@H]1O[C@](CC)([C@H]2CC[C@](O)(CC)[C@H](C)O2)C[C@@H]1C`, for which the TGI in assay [5] was 10.7 µM; in assay [2], 3.41 µM.
With `Cc1ccc(/C(=C/C=C(C#N)C#N)Sc2cc(Cl)ccc2Cl)cc1`, the TGI in assay [6] was 13 µM.
In assay [5], `O=C(Nc1ccc(Cl)cc1)/C(Cc1cccc[n+]1[O-])=N\Nc1ccc([N+](=O)[O-])cc1[N+](=O)[O-]` came in with a TGI greater than 100 µM.
As to `CC1(C)CCc2cc3c(-c4ccccc4)cc(=O)oc3cc2O1`, the TGI in assay [5] and in assay [2] was greater than 100 µM in each case.
Take `O=C1Nc2ccccc2Nc2nc3cccccc-3c21`: the TGI in assay [2] was greater than 100 µM.
For the compound `CCOc1ccc2c(ccc(/C=C\c3cc(C)c4cccnc4c3O)[n+]2C)c1`, the TGI in assay [7] amounted to 38.1 µM; in assay [6], 0.632 µM.
In the case of `c1ccc2c(c1)nc1n2CSC1`, the TGI in assay [5] and in assay [2] was greater than 100 µM in each case.
Take `O=C(O)c1cc(=O)[nH]c(=S)[nH]1`: the TGI in assay [8], in assay [7] and in assay [6] was greater than 100 µM each time.
The compound `CN1C2C=C(c3ccccc3)CC1CC2` (configuration not stated) yielded a TGI in assay [2] greater than 100 µM.
On to `Cc1ccc(S(=O)(=O)Oc2cc(S(=O)(=O)O)cc3cc(S(=O)(=O)O)cc(N)c23)cc1`, for which the TGI in assay [8], in assay [7] and in assay [6] was greater than 100 µM in each case.
On to `CN1CCN(Cc2ccc(NC(=O)c3ccc(C#N)c(C#Cc4cnc(N)c5ncccc45)c3)cc2C(F)(F)F)CC1`, for which, in assay [7], the GI50 was 12.7 µM and the TGI is 41.9 µM.
On to `[C-]#[O+].[Cl][Sn]([Cl])[Cl].[Cl][Sn]([Cl])[Cl].[Pt].c1ccncc1`, for which the GI50 was 35.4 µM in assay [1], greater than 75.6 µM in assay [3] and 33.4 µM in assay [4]. For the same compound, the TGI in assay [1], in assay [3] and in assay [4] was greater than 100 µM each time.
Take `CC(=O)[O-].CC(=O)[O-].[NH2-].[Pt+2].c1ccncc1`: in assay [6], the GI50 is greater than 100 µM and the TGI is greater than 100 µM.
As to `Cc1cccc2c(N)c3cccc(C(=O)NCCN(C)C)c3nc12`, the TGI in assay [7] came out at 4.16 µM; in assay [6], 0.275 µM.
Take `CC(C)=CC(=O)OC1C2C(C)C(=O)OC2C(O)C(C)C2C=CC(=O)C21C` (configuration not stated): the TGI stood at 4.01 µM in assay [1], 9.77 µM in assay [2], 6.28 µM in assay [3] and 1.29 µM in assay [4].
For the compound `CC(C)=CCc1c(C)cc2cc3c(c(O)c2c1O)C(O)=CC(=O)C3(CC=C(C)C)C/C=C(\C)CO` (configuration not stated), the TGI in assay [1] was determined as 80 µM; in assay [2] it was 53.5 µM; in assay [3], 62 µM; in assay [4] it was 101 µM.
Consider `CCOP(=O)(OCC)C(Cc1ccc(OC)c(OC)c1)N=C(c1ccccc1)c1ccccc1` (configuration not stated), for which the TGI in assay [8], in assay [7] and in assay [6] was greater than 100 µM each time.
As for `CCOc1ccc(/C=C/[N+](=O)[O-])cc1`, in assay [6], the GI50 was 7.91 µM and the TGI was 20.9 µM.
Take `O=C(Nc1nc2ccc([N+](=O)[O-])cc2[n+]([O-])n1)C(F)(F)F`: the TGI is 34 µM in assay [8], greater than 100 µM in assay [7] and greater than 100 µM in assay [6].
For the compound `CC1=C[C@]2(CC(C)C3C(CC4(C)C5CCC6C(C)(C)C(=O)CC[C@@]67C[C@@]57CC[C@]34C)O2)OC1=O` (some centres not stated), the values for the TGI in assay [5] and in assay [2] were 30.5 µM and 30 µM, respectively.
